In PubChem BioAssay AID1259407 (Chemical Carcinogenesis Research Information System (CCRIS), 2018) one finds mutagenic call data, which are given here for 5 compounds.

Activity calls are given as the source filed them. The rule behind the calls is not given here.

The series relates to CCRIS mutagenicity, Ames/micronucleus/aberration tests. The series can be described thus: CCRIS mutagenicity studies.
Setting [1] is: Test System: AMES SALMONELLA TYPHIMURIUM, Strain/Indicator: TA98, Metabolic Activation: NONE, Method: PREINCUBATION
Where [2] appears, read: Test System: AMES SALMONELLA TYPHIMURIUM, Strain/Indicator: TA100, Metabolic Activation: NONE, Method: PREINCUBATION
The mark [3] stands for this setting: Test System: AMES SALMONELLA TYPHIMURIUM, Strain/Indicator: TA1535, Metabolic Activation: NONE, Method: PREINCUBATION
The mark [4] stands for this setting: Test System: AMES SALMONELLA TYPHIMURIUM, Strain/Indicator: TA1537, Metabolic Activation: NONE, Method: PREINCUBATION
Setting [5] is: Test System: AMES SALMONELLA TYPHIMURIUM, Strain/Indicator: TA100, Metabolic Activation: NONE, Method: STANDARD PLATE.

Take `CCCSC(=O)Cl`: the mutagenic call by setting is: (Test System: AMES SALMONELLA TYPHIMURIUM, Strain/Indicator: TA97, Metabolic Activation: HAMSTER, LIVER, S-9, AROCLOR 1254 (30%), Method: PREINCUBATION) “inactive; negative”; (Test System: AMES SALMONELLA TYPHIMURIUM, Strain/Indicator: TA97, Metabolic Activation: NONE, Method: PREINCUBATION) “inactive; negative”; (Test System: AMES SALMONELLA TYPHIMURIUM, Strain/Indicator: TA97, Metabolic Activation: RAT, LIVER, S-9, AROCLOR 1254 (30%), Method: PREINCUBATION) “inactive; negative”; (Test System: AMES SALMONELLA TYPHIMURIUM, Strain/Indicator: TA98, Metabolic Activation: HAMSTER, LIVER, S-9, AROCLOR 1254 (30%), Method: PREINCUBATION) “inactive; negative”; under setting [1], “inactive; negative”; (Test System: AMES SALMONELLA TYPHIMURIUM, Strain/Indicator: TA98, Metabolic Activation: RAT, LIVER, S-9, AROCLOR 1254 (30%), Method: PREINCUBATION) “inactive; negative”. Besides, the mutagenic call is, setting by setting: (Test System: AMES SALMONELLA TYPHIMURIUM, Strain/Indicator: TA100, Metabolic Activation: HAMSTER, LIVER, S-9, AROCLOR 1254 (30%), Method: PREINCUBATION) “inactive; negative”; under setting [2], “inactive; negative”; (Test System: AMES SALMONELLA TYPHIMURIUM, Strain/Indicator: TA100, Metabolic Activation: RAT, LIVER, S-9, AROCLOR 1254 (30%), Method: PREINCUBATION) “inactive; negative”; (Test System: AMES SALMONELLA TYPHIMURIUM, Strain/Indicator: TA1535, Metabolic Activation: HAMSTER, LIVER, S-9, AROCLOR 1254 (5%), Method: PREINCUBATION) “inactive; negative”; (Test System: AMES SALMONELLA TYPHIMURIUM, Strain/Indicator: TA1535, Metabolic Activation: HAMSTER, LIVER, S-9, AROCLOR 1254 (10%), Method: PREINCUBATION) “active; positive”; (Test System: AMES SALMONELLA TYPHIMURIUM, Strain/Indicator: TA1535, Metabolic Activation: HAMSTER, LIVER, S-9, AROCLOR 1254 (30%), Method: PREINCUBATION) “active; positive”. Further, the mutagenic call is, setting by setting: under setting [3], “inactive; negative”; (Test System: AMES SALMONELLA TYPHIMURIUM, Strain/Indicator: TA1535, Metabolic Activation: RAT, LIVER, S-9, AROCLOR 1254 (30%), Method: PREINCUBATION) “inactive; negative”; (Test System: AMES SALMONELLA TYPHIMURIUM, Strain/Indicator: TA1537, Metabolic Activation: HAMSTER, LIVER, S-9, AROCLOR 1254 (30%), Method: PREINCUBATION) “inactive; negative”; under setting [4], “inactive; negative”; (Test System: AMES SALMONELLA TYPHIMURIUM, Strain/Indicator: TA1537, Metabolic Activation: RAT, LIVER, S-9, AROCLOR 1254 (30%), Method: PREINCUBATION) “inactive; negative”.

For `Cn1cnc(-c2ccccc2)c1N=O`, the mutagenic call under setting [5] was “active; positive”.

Take `ClC1(Cl)[C@H](c2ccccc2)[C@@H]1c1ccccc1`: for the setting “Test System: CHINESE HAMSTER V-79, Strain/Indicator: V-79 (HPRT)/6-THIOGUANINE, Metabolic Activation: NONE”, the mutagenic call is “inactive; negative”.

On to `ClCc1ccc(Cl)cc1`, for which the mutagenic call (End Point: In vitro chromosomal aberrations, Test System: Chinese hamster lung (CHL/IU) cells, Metabolic Activation: Rat, Liver, S9, Phenobarbital and 5,6-benzoflavone) was “active; positive (structural changes and ploidy). precipitation in the culture medium at”; the mutagenic call under setting [1] was “inactive; negative”; the mutagenic call (Test System: AMES SALMONELLA TYPHIMURIUM, Strain/Indicator: TA98, Metabolic Activation: RAT LIVER S-9, PHENOBARBITAL AND BETA-NAPHTHOFLAVONE, Method: PREINCUBATION) is “inactive; negative”; the mutagenic call under setting [2] was “inactive; negative”; the mutagenic call under setting [5] is “inactive; negative”; the mutagenic call (Test System: AMES SALMONELLA TYPHIMURIUM, Strain/Indicator: TA100, Metabolic Activation: RAT LIVER S-9, PHENOBARBITAL AND BETA-NAPHTHOFLAVONE, Method: PREINCUBATION) is “inactive; negative”. The mutagenic call was “inactive; negative” (Test System: AMES SALMONELLA TYPHIMURIUM, Strain/Indicator: TA102, Metabolic Activation: NONE, Method: PREINCUBATION); “inactive; negative” (Test System: AMES SALMONELLA TYPHIMURIUM, Strain/Indicator: TA102, Metabolic Activation: RAT LIVER S-9, PHENOBARBITAL AND BETA-NAPHTHOFLAVONE, Method: PREINCUBATION); “inactive; negative” (Test System: AMES SALMONELLA TYPHIMURIUM, Strain/Indicator: TA104, Metabolic Activation: NONE, Method: PREINCUBATION); “inactive; negative” (Test System: AMES SALMONELLA TYPHIMURIUM, Strain/Indicator: TA104, Metabolic Activation: RAT LIVER S-9, PHENOBARBITAL AND BETA-NAPHTHOFLAVONE, Method: PREINCUBATION); “inactive; negative” under setting [3]; “inactive; negative” (Test System: AMES SALMONELLA TYPHIMURIUM, Strain/Indicator: TA1535, Metabolic Activation: RAT LIVER S-9, PHENOBARBITAL AND BETA-NAPHTHOFLAVONE, Method: PREINCUBATION). Further, the mutagenic call is, setting by setting: under setting [4], “inactive; negative”; (Test System: AMES SALMONELLA TYPHIMURIUM, Strain/Indicator: TA1537, Metabolic Activation: RAT LIVER S-9, PHENOBARBITAL AND BETA-NAPHTHOFLAVONE, Method: PREINCUBATION) “inactive; negative”; (Test System: E.COLI, Strain/Indicator: WP2UVRA/PKM101, Metabolic Activation: NONE, Method: PREINCUBATION) “inactive; negative”; (Test System: E.COLI, Strain/Indicator: WP2UVRA/PKM101, Metabolic Activation: RAT LIVER S-9, PHENOBARBITAL AND BETA-NAPHTHOFLAVONE, Method: PREINCUBATION) “inactive; negative”; (Test System: E.COLI, Strain/Indicator: WP2UVRA, Metabolic Activation: NONE, Method: PREINCUBATION) “inactive; negative”; (Test System: E.COLI, Strain/Indicator: WP2UVRA, Metabolic Activation: RAT LIVER S-9, PHENOBARBITAL AND BETA-NAPHTHOFLAVONE, Method: PREINCUBATION) “inactive; negative”.

Turning to `c1ccc2c(c1)Cc1ccccc1-2`, the mutagenic call was “inactive; negative” (End Point: IN VITRO CHROMOSOMAL ABERRATIONS, Test System: CHINESE HAMSTER LUNG (CHL) CELLS, Metabolic Activation: NONE); “active; positive” (End Point: IN VITRO CHROMOSOMAL ABERRATIONS, Test System: CHINESE HAMSTER LUNG (CHL) CELLS, Metabolic Activation: RAT, LIVER, S-9, KC-400); “inactive; negative” (End Point: IN VITRO MICRONUCLEUS, Test System: CHO CELLS, Metabolic Activation: RAT, LIVER, S-9, AROCLOR 1254); “inactive; negative” (Test System: AMES SALMONELLA TYPHIMURIUM, Strain/Indicator: TA97, Metabolic Activation: NONE, Method: STANDARD PLATE); “inactive; negative” (Test System: AMES SALMONELLA TYPHIMURIUM, Strain/Indicator: TA97, Metabolic Activation: RAT, LIVER, S-9, PCB, Method: STANDARD PLATE); “inactive; negative” (Test System: AMES SALMONELLA TYPHIMURIUM, Strain/Indicator: TA98, Metabolic Activation: NONE, Method: STANDARD PLATE). For the same compound, the mutagenic call reads like this: (Test System: AMES SALMONELLA TYPHIMURIUM, Strain/Indicator: TA98, Metabolic Activation: RAT, LIVER, S-9, PCB, Method: STANDARD PLATE) “inactive; negative”; under setting [5], “inactive; negative”; (Test System: AMES SALMONELLA TYPHIMURIUM, Strain/Indicator: TA100, Metabolic Activation: RAT, LIVER, S-9, PCB, Method: STANDARD PLATE) “inactive; negative”; (Test System: MOUSE LYMPHOMA, Strain/Indicator: L5178Y (TK+/TK-), Metabolic Activation: NONE, Method: SUSPENSION/PLATE) “active; positive”; (Test System: MOUSE LYMPHOMA, Strain/Indicator: L5178Y (TK+/TK-), Metabolic Activation: RAT, LIVER, S-9, AROCLOR 1254, Method: SUSPENSION/PLATE) “active; positive”; (Test System: UDS RAT HEPATOCYTES, Strain/Indicator: BROMODEOXYURIDINE INCORP, Metabolic Activation: NONE, Method: FLOW CYTOMETRIC ANALYSIS) “inactive; negative”.
